The logD is the decadic logarithm of the distribution of all forms, ionised or not, between an organic phase and buffer at a given pH. A word on the pKa: it is the pH at which an ionisable group is half protonated. Read a high pKa as a group that holds its proton tightly. The Papp A→B is how fast a substance crosses the layer from the apical side. As a reminder, the bioavailability is the share of a dose that reaches the circulation, judged against a reference dose that is usually intravenous. The term solubility denotes the dissolved amount per volume that the medium holds. A low value points to a poorly soluble substance.

In brackets after ≈: the same amount, converted by molar mass.

Series [1] can be described thus: Lipophilicity, logD of compound. Type of series: physicochemical. The following applies: octanol/water.
Series [2] is described as follows: Metabolic stability in rat hepatocyte assessed as intrinsic clearance. Format: ADME, tissue-based. The following applies: hepatocytes.
Series [3] in a line: Metabolic stability in human liver microsomes assessed as intrinsic clearance. Type of series: ADME, Microsome. Conditions: read-out: CLH. For orientation: Liver microsomes are vesicles of endoplasmic reticulum, rich in cytochrome P450 enzymes.
Series [4] can be described thus: Dissociation constant, pKa of the compound. Type of series: physicochemical.
A short description of series [5]: Clearance in Han Wistar rat at 0.5 mg/kg, iv or 1 mg/kg, po. Format: ADME, organism-based. Conditions: in vivo.
The nature of series [6]: Apparent permeability of the compound across apical to basolateral side in human Caco-2 cells at pH 6.5. Format: ADME, cell-based. The following applies: Caco-2, pH 6.5. In general terms: Passage across Caco-2 layers is used to estimate intestinal permeability.
The nature of series [7]: Metabolic stability in human hepatocyte assessed as intrinsic clearance. Format: ADME, tissue-based. The following applies: hepatocytes.
The nature of series [8]: Volume of distribution at steady state in Han Wistar rat at 0.5 mg/kg, iv or 1 mg/kg, po. Format: ADME, organism-based. Conditions: in vivo, read-out: Vdss.
Series [9] is described as follows: Clearance for unbound fraction in CD-1 mouse at 0.5 mg/kg, iv or 1 mg/kg, po. Type of series: ADME, organism-based. The following applies: in vivo.
A short description of series [10]: Unbound clearance in Han Wistar rat at 0.5 mg/kg, iv or 1 mg/kg, po. Type of series: ADME, organism-based. Conditions: in vivo.
A short description of series [11]: Clearance in CD-1 mouse at 0.5 mg/kg, iv or 1 mg/kg, po. Conditions: in vivo. Type of series: ADME, organism-based.
A short description of series [12]: Volume of distribution at steady state in CD-1 mouse at 0.5 mg/kg, iv or 1 mg/kg, po. Type of series: ADME, organism-based. Conditions: in vivo, read-out: Vdss.
The nature of series [13]: Oral bioavailability in Han Wistar rat at 1 mg/kg. Type of series: ADME, organism-based. The following applies: in vivo.
The conditions of series [14]: mouse, hepatocytes.
The nature of series [15]: Solubility of compound. Type of series: physicochemical.
Series [16] can be described thus: Oral bioavailability in CD-1 mouse at 1 mg/kg. Type of series: ADME, organism-based. Conditions: in vivo.

For the compound `CNC(=O)c1nn(C)c2ccc(Nc3nccc(-n4cc(CN(C)C)c(OC)n4)n3)cc12`, the pH-dependent lipophilicity (logD) in series [1] came to 2.3. Besides, the CLH in [2] came to 21 µL/min. For the same compound, the microsomal CLint in series [3] was found to be 103 µL/min/mg.
Take `CNC(=O)c1nc(C)n2ccc(Nc3nccc(-n4cc([C@@H]5C[C@@H](F)CN5C)cn4)n3)cc12`: the CLH in series [2] came out at 31 µL/min. Moreover, in [3], the microsomal CLint came to 278 µL/min/mg.
For `Cc1nnc(-c2nn(C)c3ccc(Nc4nccc(-c5cc(CN(C)C)n(C)n5)n4)cc23)o1`, the logD in series [1] turned out to be 2.6. For the same compound, the CLH in [2] was determined as 14 µL/min.
The compound `COC(=O)c1nn(C)c2c(C)cc(Nc3nccc(-c4cc(CN(C)C)n(C)n4)n3)cc12` displayed a logD in series [1] of 3.2. The CLH in [2] was 186 µL/min.
`CNC(=O)c1nn(C)c2ccc(Nc3nccc(-c4cc(CN(C)C)n(C)n4)n3)cc12` showed a logD in [1] of 2.2. In [4], this compound came in with a pKa of 7.3. Further, the CLH in series [2] worked out at 51 µL/min. Moreover, the microsomal CLint in [3] was determined as 93 µL/min/mg.
The compound `CNC(=O)c1nn(C)c2c(C)cc(Nc3nccc(-c4cc(CN(C)C)n(C)n4)n3)cc12` gave a logD in series [1] of 2.6. Further, the CLH in series [2] worked out at 64 µL/min. The microsomal CLint in series [3] came out at 106 µL/min/mg.
Compound `CNC(=O)c1nn(C)c2ccc(Nc3nccc(-n4cc(CN(C)C)c(F)n4)n3)cc12` gave a log distribution coefficient (logD) in series [1] of 2.8. The CLH in series [2] was found to be 34 µL/min. In series [3], the microsomal CLint was 84 µL/min/mg.
`Cc1nn(-c2ccnc(Nc3ccc4c(c3)c(Cl)c(C)n4C)n2)cc1CN1CC(O)C1` came in with a pH-dependent lipophilicity (logD) in series [1] of 3.9. In [2], the CLH is 66 µL/min. Further, the microsomal CLint in series [3] was 49 µL/min/mg.
`CN(C)Cc1cnn(-c2ccnc(Nc3ccc4c(c3)c(C(=O)N(C)C)nn4C)n2)c1`: the logD in series [1] worked out at 1.7. In addition, in [2], the CLH turned out to be 33 µL/min. Also, in series [3], the microsomal CLint came to 43 µL/min/mg.
Consider `CNC(=O)c1nc(C)n2ccc(Nc3nccc(-n4cc([C@@H]5C[C@H](O)CN5C)cn4)n3)cc12`, for which the logD in series [1] is 2. The same compound came in with a pKa in [4] of 7.9. For the same compound, the CLH in [2] was found to be 17 µL/min. The microsomal CLint in series [3] turned out to be 110 µL/min/mg.
On to `CNC(=O)c1nn(C)c2c(C)cc(Nc3nccc(-n4cc(CN(C)C)cn4)n3)cc12`, for which, in series [1], the logD was determined as 2.3. Besides, the CLH in series [2] was 49 µL/min. The microsomal CLint in series [3] was 32 µL/min/mg.
Consider `CNC(=O)c1nn(C)c2ccc(Nc3nccc(-n4cc(CN5CC(O)C5)c(C)n4)n3)cc12`, for which the log distribution coefficient (logD) in [1] amounted to 1.9. The compound also registered a pKa in series [4] of 8.6. For the same compound, the CLH in series [2] amounted to 19 µL/min. Besides, the microsomal CLint in [3] was 78 µL/min/mg.
`Cc1nnc(-c2nc(C)n3ccc(Nc4nccc(-c5cc(CN(C)C)n(C)n5)n4)cc23)o1`: the clearance in series [5] worked out at 189 mL/min/kg; in series [11], 255 mL/min/kg. In [6], the Papp A→B came out at 6.5 ×10⁻⁶ cm/s. Moreover, the CLH in series [7] was 1.9 µL/min; in series [2], 12 µL/min; in [14] it was 44 µL/min. Further, the Vd came to 11 L/kg in [8] and 8 L/kg in series [12]. This compound registered a pH-dependent lipophilicity (logD) in series [1] of 2.4. The results for the CL free in [9] and in [10] were 955 mL/min/kg and 787 mL/min/kg, respectively. In [4], this compound registered a pKa of 7.2. In addition, the bioavailability in series [13] was 5%; in series [16] it was 7%. Further, the microsomal CLint in [3] was found to be 40 µL/min/mg. The compound further displayed a solubility in series [15] of 97 µM (≈ 43.1 µg/mL).
Take `CNC(=O)c1ncn2ccc(Nc3nccc(-n4cc(CN(C)C)cn4)n3)cc12`: the logD in series [1] came to 1.4. Further, the CLH in [2] came to 34 µL/min. In addition, the microsomal CLint in series [3] is 9 µL/min/mg.
The compound `CNC(=O)c1nn(C)c2ccc(Nc3nccc(-n4cc(CN(C)C)cn4)n3)cc12` showed a clearance in series [5] of 8 mL/min/kg. Further, the CLH in [7] was 21 µL/min; in [2], 31 µL/min. In addition, in series [8], the Vd came to 1.1 L/kg. The compound also displayed a log distribution coefficient (logD) in [1] of 1.8. The compound further showed a CL free in series [10] of 250 mL/min/kg. The compound also had a bioavailability in series [13] of 60%. Moreover, the microsomal CLint in [3] came to 52 µL/min/mg. In series [15], this compound returned a solubility of 909 µM (≈ 369 µg/mL).

For the origin of these results see ChEMBL document CHEMBL4673232, “Optimization of a series of potent, selective and orally bioavailable SYK inhibitors” (Bioorg Med Chem Lett, 2020).
